System: 126254-015-R-J1-PDC complex spheroid growth, % test/control
Assay: Anticancer human tumor 126254-015-R-J1-PDC patient-derived soft tissue sarcoma cell line growth inhibition [Asc]
Settings: for IC50: curve of first compound; for viability, T/C: stronger effect = lower value
Procedure: Multicellular complex tumor spheroid response to apoptosis pathway targeting inhibitors Alrizomadlin, Pelcitoclax, and Dasminapant in combination with a variety of drugs and investigational agents in selected tumor cell lines
The MDM2 inhibitor alrizomadlin, the Bcl-2/Bcl-xL inhibitor pelcitoclax, and the IAPs inhibitor dasminapant were evaluated both individually and in combination with standard of care and investigational anticancer small molecules within a complex spheroid model of solid tumors. . Complex spheroids include a stromal component modeled by human endothelial cells (HUVEC) and fibroblasts modeled by human mesenchymal stem cells (MSCs). The concentration ranges selected for each drug and investigational agent were based upon clinically achievable concentrations if the clinical Cmax of the agent was known.
Compounds. The drugs and investigational agents: alrizomadlin (APG-115; NSC831270), pelcitoclax (APG-1252; NSC835773), dasminapant (APG-1387;NSC834197), TAK-243 (NSC785004), copanlisib (NSC809693), olaparib (NSC753686), talazoparib (NSC767125), cobimetinib (NSC 768068), eltanexor (KPT-8602, NSC 794443), abemaciclib (NSC 768073), sotorasib (NSC818433), adagrasib (NSC 831453), MRTX-1133 (NSC 836407), Iadademestat (ORY1001, NSC 806812), and RMC-4630 (NSC839698), were obtained from the NCI Developmental Therapeutics Program Chemical Repository. The FDA-approved anticancer drug set is available from the Developmental Therapeutics Program at https://dtp.cancer.gov/organization/dscb/obtaining/available plates.htm. […] The stock solutions were prepared in dimethyl sulfoxide (DMSO, Sigma-Aldrich, St. Louis, MO, cat. D2650) at 800-fold the tested concentration and stored at -70 degrees C prior to their use. All drugs and investigational agents were tested over a range starting from a high concentration at or near the clinical Cmax and decreasing in half-log increments. If the clinical Cmax for an agent had not been determined, the highest concentration tested was 10 microM.
The patient-derived cancer (PDC) cell lines include five colon adenocarcinomas: 186277-243-T-J2-PDC, 616215-338-R-J1-PDC, 439559-082-T-J2-PDC, 463943-066-T-J2-PDC, and 519858-162-T-J1-PDC; three pancreatic carcinomas: 323965-272-R-J2-PDC, 521955-158-R6-J3-PDC, and 521955-158-R2-J5-PDC; two uterine sarcomas: 327498-152-R-J2-PDC and 993429-296-R-J1-PDC; two rhabdomyosarcomas: 755483-174-R-J1-PDC and 772245-204-R-J1-PDC; two soft tissue sarcomas: 126254-015-R-J1-PDC and 494315-158-R-J1-PDC; two malignant fibrous histiocytomas: 317291-083-R-J1-PDC and 596521-263-R-J1-PDC; two breast carcinomas: 171881-019-R-J1-PDC and 885512-296-R-J2-PDC; and one ovarian carcinoma: 6556581-035-R-J-PDC were obtained from the NCI PDMR, (https://pdmr.cancer.gov). The established cell lines HSSY-2 synovial sarcoma (RRID:CVCL 8719), SYO-1 synovial sarcoma (RRID:CVCL_7146), MPNST malignant peripheral neural sheath tumor were obtained from the Sloan Kettering Institute. The following established cell lines were purchased from the American Type Culture Collection (ATCC, Manassas, VA), Sor the received from the NCI repository:, PANC-1 pancreatic carcinoma (CRL-1469, RRID:CVCL_0480), OVCAR-5 ovarian carcinoma (RRID:CVCL_1628), OVCAR-8 ovarian carcinoma (RRID:CVCL_1629), , MCF-7 breast carcinoma (CRL-12584, RRID:CVCL_0031), MDA-MB-231 breast carcinoma (CRL-12532, RRID:CVCL_0062), NCI-H1876 small cell lung carcinoma (CRL-5902, RRID:CVCL_1503), NCI-H510A small cell lung carcinoma (HTB-184, RRID:CVCL_1565), NCI-H1417 (CRL-5869, RRID:CVCL_1469), and NCI-H196 small cell lung carcinoma (CRL-5823, RRID:CVCL_1509). Dr. Peter Houghton (Greehey Children's Cancer Research Institute, University of Texas Health Science Center, San Antonio, TX) provided Rh-18 rhabdomyosarcoma (RRID:CVCL_1659). Pooled donor human umbilical vein endothelial cells (HUVEC, Lonza, cat. CC-2519) and human mesenchymal stem cells (hMSC, Lonza, cat. PT-2501) were purchased from Lonza (Walkersville, MD).
Cell Culture. […]

[1] = second compound 0.1 µM, first compound 0.00316 µM
[2] = second compound 0.1 µM, first compound 0.01 µM
[3] = second compound 0.1 µM, first compound 0.0316 µM
[4] = second compound 0.1 µM, first compound 0.1 µM
[5] = second compound 0.1 µM, first compound 0.316 µM
[6] = second compound 0.1 µM, first compound 1 µM
[7] = second compound 0.316 µM, first compound 0.00316 µM
[8] = second compound 0.316 µM, first compound 0.01 µM
[9] = second compound 0.316 µM, first compound 0.0316 µM
[10] = second compound 0.316 µM, first compound 0.1 µM
[11] = second compound 0.316 µM, first compound 0.316 µM
[12] = second compound 0.316 µM, first compound 1 µM
[13] = second compound 1 µM, first compound 0.00316 µM
[14] = second compound 1 µM, first compound 0.01 µM
[15] = second compound 1 µM, first compound 0.0316 µM
[16] = second compound 1 µM, first compound 0.1 µM
[17] = second compound 1 µM, first compound 0.316 µM
[18] = second compound 1 µM, first compound 1 µM
[19] = second compound 3.16 µM, first compound 0.00316 µM
[20] = second compound 3.16 µM, first compound 0.01 µM
[21] = second compound 3.16 µM, first compound 0.0316 µM
[22] = second compound 3.16 µM, first compound 0.1 µM
[23] = second compound 3.16 µM, first compound 0.316 µM
[24] = second compound 3.16 µM, first compound 1 µM
[25] = second compound 10 µM, first compound 0.00316 µM
[26] = second compound 10 µM, first compound 0.01 µM
[27] = second compound 10 µM, first compound 0.0316 µM
[28] = second compound 10 µM, first compound 0.1 µM
[29] = second compound 10 µM, first compound 0.316 µM
[30] = second compound 10 µM, first compound 1 µM
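Further: spheroids exposed to compound for seven days.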
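Wherever viability, T/C is given: 100% = DMSO vehicle control wells.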

For `CCN1CCN(Cc2ccc(Nc3ncc(F)c(-c4cc(F)c5nc(C)n(C(C)C)c5c4)n3)nc2)CC1` + CCN1C(C(=O)NC23CCC(C(=O)O)(CC2)CC3)C(c2cccc(Cl)c2F)C2(C(=O)Nc3cc(Cl)ccc32)C12CCCCC2, the IC50 (second compound 0.03 µM) was greater than 1000 nM, the IC50 (second compound 0.0949 µM) was greater than 1000 nM and the IC50 (second compound 0.3 µM) was greater than 1000 nM. For the same molecule, the IC50 (second compound 0.949 µM) was greater than 1000 nM, the IC50 (second compound 3 µM) was greater than 1000 nM and the viability, T/C (second compound 0.03 µM, first compound 0.00316 µM) was 87.6%. The viability, T/C (second compound 0.03 µM, first compound 0.01 µM) was 93.2%, the viability, T/C (second compound 0.03 µM, first compound 0.0316 µM) was 99.5% and the viability, T/C (second compound 0.03 µM, first compound 0.1 µM) was 91.3%. The viability, T/C (second compound 0.03 µM, first compound 0.316 µM) was 105%, the viability, T/C (second compound 0.03 µM, first compound 1 µM) was 109% and the viability, T/C (second compound 0.0949 µM, first compound 0.00316 µM) was 91.2%. For the same molecule, the viability, T/C (second compound 0.0949 µM, first compound 0.01 µM) was 94.9%, the viability, T/C (second compound 0.0949 µM, first compound 0.0316 µM) was 97% and the viability, T/C (second compound 0.0949 µM, first compound 0.1 µM) was 102%. It also gave a viability, T/C (second compound 0.0949 µM, first compound 0.316 µM) of 91.3%, a viability, T/C (second compound 0.0949 µM, first compound 1 µM) of 109% and a viability, T/C (second compound 0.3 µM, first compound 0.00316 µM) of 89%. For the same molecule, the viability, T/C (second compound 0.3 µM, first compound 0.01 µM) was 96.9%, the viability, T/C (second compound 0.3 µM, first compound 0.0316 µM) was 96.6% and the viability, T/C (second compound 0.3 µM, first compound 0.1 µM) was 89.8%. For the same molecule, the viability, T/C (second compound 0.3 µM, first compound 0.316 µM) was 101%, the viability, T/C (second compound 0.3 µM, first compound 1 µM) was 105% and the viability, T/C (second compound 0.949 µM, first compound 0.00316 µM) was 99.5%. For the same molecule, the viability, T/C (second compound 0.949 µM, first compound 0.01 µM) was 98.3%, the viability, T/C (second compound 0.949 µM, first compound 0.0316 µM) was 92.2% and the viability, T/C (second compound 0.949 µM, first compound 0.1 µM) was 88.8%. For the same molecule, the viability, T/C (second compound 0.949 µM, first compound 0.316 µM) was 122%, the viability, T/C (second compound 0.949 µM, first compound 1 µM) was 113% and the viability, T/C (second compound 3 µM, first compound 0.00316 µM) was 96.1%. For the same molecule, the viability, T/C (second compound 3 µM, first compound 0.01 µM) was 93.8%, the viability, T/C (second compound 3 µM, first compound 0.0316 µM) was 96.3% and the viability, T/C (second compound 3 µM, first compound 0.1 µM) was 94.7%. It also gave a viability, T/C (second compound 3 µM, first compound 0.316 µM) of 106% and a viability, T/C (second compound 3 µM, first compound 1 µM) of 104%.

`CNC(C)C(=O)NC1CN(S(=O)(=O)c2cccc(S(=O)(=O)N3CCC4CCC(C(=O)NC(c5ccccc5)c5ccccc5)N4C(=O)C(NC(=O)C(C)NC)C3)c2)CCC2CCC(C(=O)NC(c3ccccc3)c3ccccc3)N2C1=O` (stereo not given) + Cc1c(S(C)(=O)=O)c(-c2cc(F)cc(N3CCN(c4ccc(NS(=O)(=O)c5ccc(NC(CCN6CCC(C(=O)OCCCP(=O)(O)O)CC6)CSc6ccccc6)c(S(=O)(=O)C(F)(F)F)c5)cc4)CC3)c2)c(-c2ccc(Cl)cc2)n1C(C)C gave an IC50 (second compound 0.1 µM) greater than 1000 nM, an IC50 (second compound 0.316 µM) of 90.5 nM and an IC50 (second compound 1 µM) of 107 nM. The IC50 (second compound 3.16 µM) was 74.8 nM, the IC50 (second compound 10 µM) was 59.8 nM and the viability, T/C [1] was 83%. The viability, T/C [2] was 84.8%, the viability, T/C [3] was 67.3% and the viability, T/C [4] was 55.6%. It also gave a viability, T/C [5] of 56.2%, a viability, T/C [6] of 45% and a viability, T/C [7] of 85.8%. It also gave a viability, T/C [8] of 81.9%, a viability, T/C [9] of 63.1% and a viability, T/C [10] of 47.3%. For the same molecule, the viability, T/C [11] was 49.7%, the viability, T/C [12] was 36.5% and the viability, T/C [13] was 87.5%. It also gave a viability, T/C [14] of 81.5%, a viability, T/C [15] of 66.9% and a viability, T/C [16] of 47.9%. The viability, T/C [17] was 46.9%, the viability, T/C [18] was 36.3% and the viability, T/C [19] was 90.7%. For the same molecule, the viability, T/C [20] was 79%, the viability, T/C [21] was 60.7% and the viability, T/C [22] was 46.1%. The viability, T/C [23] was 38.1%, the viability, T/C [24] was 32.6% and the viability, T/C [25] was 80.2%. For the same molecule, the viability, T/C [26] was 78.6%, the viability, T/C [27] was 64.3% and the viability, T/C [28] was 38.2%. The viability, T/C [29] was 30.6% and the viability, T/C [30] was 27.8%.

For `O=C(c1ccc(F)c(F)c1Nc1ccc(I)cc1F)N1CC(O)([C@@H]2CCCCN2)C1` + Cc1c(S(C)(=O)=O)c(-c2cc(F)cc(N3CCN(c4ccc(NS(=O)(=O)c5ccc(NC(CCN6CCC(C(=O)OCCCP(=O)(O)O)CC6)CSc6ccccc6)c(S(=O)(=O)C(F)(F)F)c5)cc4)CC3)c2)c(-c2ccc(Cl)cc2)n1C(C)C, the IC50 (second compound 0.1 µM) was 644 nM, the IC50 (second compound 0.316 µM) was 502 nM and the IC50 (second compound 1 µM) was 494 nM. For the same molecule, the IC50 (second compound 3.16 µM) was 420 nM, the IC50 (second compound 10 µM) was 321 nM and the viability, T/C [1] was 87.3%. It also gave a viability, T/C [2] of 106%, a viability, T/C [3] of 106% and a viability, T/C [4] of 87.7%. The viability, T/C [5] was 70.7%, the viability, T/C [6] was 37.6% and the viability, T/C [7] was 88.5%. The viability, T/C [8] was 87.7%, the viability, T/C [9] was 84.7% and the viability, T/C [10] was 83.4%. The viability, T/C [11] was 60.9%, the viability, T/C [12] was 33.6% and the viability, T/C [13] was 89.2%. The viability, T/C [14] was 93.7%, the viability, T/C [15] was 83.9% and the viability, T/C [16] was 79.3%. The viability, T/C [17] was 65.5%, the viability, T/C [18] was 26.9% and the viability, T/C [19] was 88.1%. The viability, T/C [20] was 92%, the viability, T/C [21] was 75.5% and the viability, T/C [22] was 82.5%. For the same molecule, the viability, T/C [23] was 55.8%, the viability, T/C [24] was 27.6% and the viability, T/C [25] was 90.1%. The viability, T/C [26] was 98%, the viability, T/C [27] was 80.2% and the viability, T/C [28] was 75.3%. The viability, T/C [29] was 49.6% and the viability, T/C [30] was 25.3%.
